The target in this assay is Protein Wiz (Homo sapiens, UniProt O95785). The assay is described as follows: Induction of HiBit-tagged WIZ protein degradation expressed in HEK293T cells assessed as reduction in WIZ protein level incubated for 18 hrs by luminescence based assay. It counts as cell-based.
Protein Wiz, sequence (O95785 whole entry): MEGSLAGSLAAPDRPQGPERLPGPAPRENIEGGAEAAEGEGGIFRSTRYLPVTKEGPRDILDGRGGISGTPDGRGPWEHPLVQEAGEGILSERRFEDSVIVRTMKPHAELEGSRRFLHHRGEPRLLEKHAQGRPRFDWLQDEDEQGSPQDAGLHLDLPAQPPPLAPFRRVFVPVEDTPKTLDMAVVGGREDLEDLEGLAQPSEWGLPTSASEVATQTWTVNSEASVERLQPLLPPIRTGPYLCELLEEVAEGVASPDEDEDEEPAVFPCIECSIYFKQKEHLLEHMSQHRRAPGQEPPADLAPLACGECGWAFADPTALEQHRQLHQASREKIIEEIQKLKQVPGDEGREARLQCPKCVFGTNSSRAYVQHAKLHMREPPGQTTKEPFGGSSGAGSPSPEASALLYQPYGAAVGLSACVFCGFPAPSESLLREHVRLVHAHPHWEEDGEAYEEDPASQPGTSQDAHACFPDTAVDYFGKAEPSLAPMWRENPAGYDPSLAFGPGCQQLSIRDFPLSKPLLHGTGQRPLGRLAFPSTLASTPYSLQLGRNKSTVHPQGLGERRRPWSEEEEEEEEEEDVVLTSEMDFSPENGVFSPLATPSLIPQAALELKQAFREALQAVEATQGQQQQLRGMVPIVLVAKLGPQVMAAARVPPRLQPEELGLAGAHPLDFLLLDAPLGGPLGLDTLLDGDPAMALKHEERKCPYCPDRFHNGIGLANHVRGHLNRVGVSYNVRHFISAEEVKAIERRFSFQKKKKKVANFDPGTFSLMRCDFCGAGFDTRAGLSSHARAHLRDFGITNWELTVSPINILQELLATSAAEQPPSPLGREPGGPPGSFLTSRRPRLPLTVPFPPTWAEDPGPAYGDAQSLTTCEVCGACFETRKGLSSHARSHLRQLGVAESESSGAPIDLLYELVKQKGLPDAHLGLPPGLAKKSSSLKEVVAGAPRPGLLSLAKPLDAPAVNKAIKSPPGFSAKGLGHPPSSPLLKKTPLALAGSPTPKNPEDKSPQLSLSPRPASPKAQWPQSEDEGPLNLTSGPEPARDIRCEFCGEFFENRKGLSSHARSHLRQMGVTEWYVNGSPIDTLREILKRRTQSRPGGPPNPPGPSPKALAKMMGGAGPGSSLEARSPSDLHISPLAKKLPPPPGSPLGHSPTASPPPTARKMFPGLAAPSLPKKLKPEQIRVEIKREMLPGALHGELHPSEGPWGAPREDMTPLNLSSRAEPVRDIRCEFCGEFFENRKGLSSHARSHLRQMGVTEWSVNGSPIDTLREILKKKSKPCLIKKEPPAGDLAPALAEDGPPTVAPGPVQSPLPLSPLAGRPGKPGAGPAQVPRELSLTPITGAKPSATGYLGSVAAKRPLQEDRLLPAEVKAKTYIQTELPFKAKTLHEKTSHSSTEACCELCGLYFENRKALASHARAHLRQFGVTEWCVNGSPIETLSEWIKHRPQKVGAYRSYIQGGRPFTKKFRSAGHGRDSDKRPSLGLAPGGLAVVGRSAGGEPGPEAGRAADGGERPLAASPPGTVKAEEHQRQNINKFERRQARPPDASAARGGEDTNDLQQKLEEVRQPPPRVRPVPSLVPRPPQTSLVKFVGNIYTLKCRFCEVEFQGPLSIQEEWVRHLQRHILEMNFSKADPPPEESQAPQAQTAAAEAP
As to `O=C1CCC(N2Cc3cc(OC[C@H]4CCCCN4Cc4ccc(N5CCCCC5)cc4)ccc3C2=O)C(=O)N1` (stereo partly specified), the half-maximal activity concentration (AC50) stood at 0.37 nM.
As for `O=C1CCC(N2Cc3cc(OC[C@H]4CCCCN4Cc4ccc(C5=CCOCC5)cc4)ccc3C2=O)C(=O)N1` (stereo partly specified), the AC50 worked out at 0.35 nM.
With `O=C1CCC(N2Cc3cc(OC[C@H]4CCCCN4Cc4ccc(C5(C(F)(F)F)CC5)cc4)ccc3C2=O)C(=O)N1` (stereo partly specified), the AC50 turned out to be 0.22 nM.
On to `O=C1CCC(N2Cc3cc(OC[C@H]4CCCCN4Cc4ccc5c(c4)OC(F)(F)O5)ccc3C2=O)C(=O)N1` (stereo partly specified), for which the AC50 worked out at 0.47 nM.
For `CC(C)(C)c1ccc(CN2CCCC[C@@H]2COc2ccc3c(c2)CN(C2CCC(=O)NC2=O)C3=O)cc1` (stereo partly specified) the value was 0.083 nM; for `COc1ccc(CN2CCCC[C@@H]2COc2ccc3c(c2)CN(C2CCC(=O)NC2=O)C3=O)c(OC)c1` (stereo partly specified), 0.52 nM.

(Values after ChEMBL document CHEMBL4825745, “Novel Substituted Piperidine-2,6-dione Derivatives for Treating Sickle Cell Disease and β-Thalassemia” (ACS Med Chem Lett, 2021).)
